# Tests used:
# [1] = system: Mycobacterium tuberculosis; assay: Antimycobacterial activity against Mycobacterium tuberculosis H37Rv ATCC 27294 after 5 days by MABA; assay type: functional; conditions: H37Rv ATCC 27294, 120 h
# [2] = system: Mycobacterium tuberculosis; assay: Antimycobacterial activity against Mycobacterium tuberculosis MC2 6230; assay type: functional
# [3] = system: Mycobacterium tuberculosis; assay: Antimycobacterial activity against Mycobacterium tuberculosis MC2 7000; assay type: functional
# [4] = system: Mycobacterium tuberculosis; assay: Antimycobacterial activity against Mycobacterium tuberculosis H37Rv; assay type: functional
# [5] = system: Mycobacterium tuberculosis; assay: Potency index, ratio of ethambutol MIC to compound MIC for Mycobacterium tuberculosis H37Rv; assay type: functional
# [6] = biological target: T1, Phosphotyrosine protein phosphatase (Mycobacterium tuberculosis, UniProt A0A045ISB3); assay: Inhibition of Mycobacterium tuberculosis PTPB
# T1 sequence (A0A045ISB3 whole entry): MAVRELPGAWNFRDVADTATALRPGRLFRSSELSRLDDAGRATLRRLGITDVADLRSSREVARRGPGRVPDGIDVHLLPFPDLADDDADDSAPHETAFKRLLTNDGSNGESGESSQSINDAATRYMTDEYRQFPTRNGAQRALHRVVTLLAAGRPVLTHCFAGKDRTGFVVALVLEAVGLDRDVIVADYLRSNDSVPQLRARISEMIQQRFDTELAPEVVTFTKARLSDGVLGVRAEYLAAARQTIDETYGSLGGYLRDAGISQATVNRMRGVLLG
# [7] = system: Mycobacterium tuberculosis; assay: Potency index, ratio of linezolid MIC to compound MIC for Mycobacterium tuberculosis H37Rv; assay type: functional
# [8] = system: Mycobacterium tuberculosis; assay: Antimycobacterial activity against Mycobacterium tuberculosis H37Rv ATCC 27294 by agar dilution method; assay type: functional
# [9] = biological target: T2, Pantothenate synthetase (Mycobacterium tuberculosis, UniProt P9WIL5); assay: Inhibition of Mycobacterium tuberculosis pantothenate synthetase
# T2 sequence (P9WIL5 whole entry): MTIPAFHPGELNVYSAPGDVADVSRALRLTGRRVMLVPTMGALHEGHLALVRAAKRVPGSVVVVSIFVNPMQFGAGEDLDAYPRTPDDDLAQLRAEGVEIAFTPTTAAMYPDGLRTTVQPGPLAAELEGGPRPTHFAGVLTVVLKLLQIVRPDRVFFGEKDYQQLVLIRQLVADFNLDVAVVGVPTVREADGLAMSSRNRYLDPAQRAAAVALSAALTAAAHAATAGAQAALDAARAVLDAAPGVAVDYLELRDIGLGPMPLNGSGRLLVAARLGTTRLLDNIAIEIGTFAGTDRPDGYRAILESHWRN
# [10] = Selectivity index, ratio of cytotoxic concentration for HEK293 cells to MIC for Mycobacterium tuberculosis H37Rv ATCC 27294; assay type: toxicity; conditions: human, read-out: Selectivity Index
# [11] = system: Mycobacterium tuberculosis; assay: Potency index, ratio of ethambutol MIC to compound MIC for Mycobacterium tuberculosis H37Rv ATCC 27294; assay type: functional
# [12] = Mycobacterium tuberculosis, H37Rv
structure (smiles),measurement,setting,value
NNC(=O)c1ccncc1 [ISONIAZID],MIC,[1],0.06 µg/mL
same,MIC,[2],0.12 to 144 µM
same,MIC,[3],0.12 to 144 µM
same,MIC,[4]; [12],0.075 µg/mL
CCCCCc1ccc(-c2cn(CC(O)COc3ccc4c(c3)OC3(CCCCC3)CC4=O)nn2)cc1 (stereo not given),Ratio,[5],2
same,MIC,[4]; [12],0.78 µg/mL
COc1ccc(-c2nnc(-c3cccnc3)n2Nc2nc3c(Cl)cccc3s2)cc1,MIC99,[4]; [12],25 µg/mL
O=C(CCCCCCn1cc(COc2ccc(-c3cc(C(=O)O)no3)c(C3CCCCC3)c2)nn1)Nc1ccc2cc3ccccc3cc2c1,IC50,[6],170 nM
Clc1cccc(Cl)c1-c1nnc2sc(-c3cccnc3)nn12,MIC,[4]; [12],25 µg/mL
CC1=C(C(=O)O)N2C(=O)[C@@H](NC(=O)[C@H](N)c3ccccc3)[C@H]2SC1 [CEPHALEXIN ANHYDROUS],MIC,[2],0.12 to 144 µM
same,MIC,[3],0.12 to 144 µM
CC[C@@H](CO)NCCN[C@@H](CC)CO [ETHAMBUTOL],MIC,[1],3.13 µg/mL
same,MIC,[4]; [12],1.56 µg/mL
NC(=O)c1cnccn1 [PYRAZINAMIDE],MIC,[4]; [12],100 µg/mL
CC(=O)NC[C@H]1CN(c2ccc(N3CCOCC3)c(F)c2)C(=O)O1 [LINEZOLID],MIC,[4]; [12],1 µg/mL
O=C1CC2CN(c3ccc(N4C[C@H](Cn5ccnn5)OC4=O)cc3F)CC2C1 (stereo not given in full),Ratio,[7],2
same,MIC,[4]; [12],0.5 µg/mL
c1cncc(-c2nn3c(COc4cnccn4)nnc3s2)c1,MIC,[4]; [12],0.4 µg/mL
CCc1cc(C(N)=S)ccn1 [ETHIONAMIDE],MIC,[2],0.12 to 144 µM
same,MIC,[3],0.12 to 144 µM
COc1ccc(-n2cc(Cn3nc(-c4ccccc4)c4c3CCN(C(=O)Nc3ccccc3)C4)nn2)cc1,MIC,[8],24.7 µM
same,IC50,[9],1010 nM
CO[C@H]1/C=C/O[C@@]2(C)Oc3c(C)c(O)c4c(O)c(c(/C=N/N5CCN(C)CC5)c(O)c4c3C2=O)NC(=O)/C(C)=C\C=C\[C@H](C)[C@H](O)[C@@H](C)[C@@H](O)[C@@H](C)[C@H](OC(C)=O)[C@@H]1C [RIFAMPIN],MIC,[1],0.39 µg/mL
same,MIC,[2],0.12 to 144 µM
same,MIC,[3],0.12 to 144 µM
same,MIC98,[4],40 µg/mL
same,MIC,[4]; [12],0.043 to 0.5 µg/mL
O=C(N/N=C1/C(=O)N(Cc2ccc(Cl)cc2)c2ccccc21)c1ccc(-n2cc(-c3ccccc3)nn2)cc1O,MIC,[1],0.39 µg/mL
same,selectivity ratio,[10],> 128
same,Ratio,[11],8
